Measured values as given in paper PMC7830570, “Substrate Scope for Human Histone Lysine Acetyltransferase KAT8” (International Journal of Molecular Sciences, 2021).

Legend:
[1] = target: T1, human KAT8 (residues 125–458) (Homo sapiens, UniProt Q9H7Z6); test: MALDI-TOF MS enzymatic assay of KAT8-catalysed acetylation of H4K*16 histone peptides; format: biochemical; details: standard conditions: 2 µM KAT8, 100 µM histone peptide, 300 µM AcCoA, 50 mM HEPES, 0.1 mM EDTA, 1 mM DTT, pH 8.0, 37 °C
T1 construct: Recombinant human KAT8 (residues 125–458) was expressed in E. coli; His tag; made in house; host or cells: E. coli
T1 sequence (Q9H7Z6 125-458): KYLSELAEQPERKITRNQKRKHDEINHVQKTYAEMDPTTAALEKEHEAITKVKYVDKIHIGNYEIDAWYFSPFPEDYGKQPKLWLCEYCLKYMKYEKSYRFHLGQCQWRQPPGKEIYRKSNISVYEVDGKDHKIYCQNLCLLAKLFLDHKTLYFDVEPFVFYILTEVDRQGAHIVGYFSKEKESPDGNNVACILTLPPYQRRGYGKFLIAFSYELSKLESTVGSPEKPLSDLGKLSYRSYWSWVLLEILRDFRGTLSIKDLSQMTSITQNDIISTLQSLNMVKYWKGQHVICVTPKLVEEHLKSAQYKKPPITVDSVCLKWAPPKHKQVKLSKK
Procedure: The biocatalytic potential of KAT8 was assessed through a MALDI-TOF MS based enzymatic assay. Human KAT8 was incubated in the presence of H4K*16 peptides and AcCoA under “standard conditions” (2 µM KAT8, 100 µM histone peptide, 300 µM AcCoA; assay buffer: 50 mM Hepes, 0.1 mM EDTA, 1 mM DTT, pH = 8.0) and the production of acetylated peptides was monitored at different time points. […] KAT8-catalysed acetylation of H4K16 was quantitative after 1 h, in line with previous findings (Figure 3a and Figure S17). […] This is an interesting observation, given the well-documented capacity of some histone lysine methyltransferases (KMTs) that introduce higher methylation states (i.e., Kme2 and Kme3) on histone tails starting from Kme as a substrate. […]
KAT8 enzymatic activity towards H4K*16 histone peptides was measured at different time points under standard conditions (2 µM KAT8, 100 µM peptide, 300 µM AcCoA) in reaction buffer (50 mM HEPES, 0.1 mM EDTA, 1 mM DTT, pH = 8.0) as previously described The reactions were performed in a final volume of 50 µL and shaken at 37 °C, using a Thermomixer C (750 rpm). KAT8 activity was stopped at a given time point by the addition of TFA 10% in Milli-Q water, and reactions were analysed by MALDI-TOF MS employing α-Cyano-4-hydroxycinnamic acid (CHCA) matrix.

[2] = target: T1, human KAT8 (residues 125–458); test: MALDI-TOF MS kinetics assay of KAT8-catalysed acetylation under steady-state conditions; format: biochemical; details: pH 7.4, 37 °C
Procedure: Next, we investigated the catalytic efficiencies for the histone peptides that were observed as KAT8 substrates. Kinetics analyses were carried out under steady-state conditions by incubating saturating concentrations of AcCoA against different concentrations of histone peptides.
Histone peptides kinetics evaluation was carried out with a MALDI-TOF MS assay under steady-state conditions as previously described. Briefly, dilution series of H4K*16 peptides (1050 or 700–0 µM) were incubated with AcCoA (100 µM; > 5 x KM value of AcCoA) and the reactions were started by the addition of KAT8 (570 nM) in kinetic buffer (50 mM HEPES, 0.1 mM EDTA, 0.01% TRITON-X, pH = 7.4). AcCoA stock solutions in Milli-Q water were calibrated using a NanoDrop 2000 spectrophotometer (Thermo Scientific, Waltham, MA, USA), with molar extinction coefficient ε260nm = 16,400 M^−1 cm^−1. Reactions were incubated for 20 min at 37 °C, shaken at 750 rpm and quenched with TFA 10% in Milli-Q water at different time points within the linear production of acetylated peptides. Quantification of the acetylated peptide produced was extrapolated, at any concentration point, with FlexAnalysis software, considering all the ionic species. Kinetic parameters were obtained by fitting V0 values and histone peptide concentrations to the Michaelis–Menten equation using the GraphPad Prism 5 software. Kinetic experiments were carried out in replicates (n = 2 or 3) and final values are reported as the mean value ± SD.

[3] = target: T1, human KAT8 (residues 125–458); details: lysine analogue on histone peptide; cited from earlier work
Procedure: The biocatalytic potential of KAT8 was assessed through a MALDI-TOF MS based enzymatic assay. Human KAT8 was incubated in the presence of H4K*16 peptides and AcCoA under “standard conditions” (2 µM KAT8, 100 µM histone peptide, 300 µM AcCoA; assay buffer: 50 mM Hepes, 0.1 mM EDTA, 1 mM DTT, pH = 8.0) and the production of acetylated peptides was monitored at different time points. […] KAT8-catalysed acetylation of H4K16 was quantitative after 1 h, in line w ... || Subsequently, we investigated the role of the geometrically constrained and steric lysine analogues for KAT8 catalysis. The KAT8-catalysed reaction of H4KE16 produced 64% of acetylated peptide after 1 h, and reached completion within 3 h (Figure 3i and Figure S17).

With “GGAK16RHRKVLRDNIQ [H4K16, histone H4 peptide, residues 13–27, with natural lysine at position 16]” the “acetylated peptide produced after 1 h” value [1] was “quantitative”, the “kcat^app” value ([2]; 570 nM KAT8, 100 µM AcCoA, peptide 1050 or 700–0 µM, 50 mM HEPES, 0.1 mM EDTA, 0.01% TRITON-X, mean ± SD, n = 2 or 3, SD) was 0.25 ± 0.013 s⁻¹ and the Km ([2]; 570 nM KAT8, 100 µM AcCoA, peptide 1050 or 700–0 µM, 50 mM HEPES, 0.1 mM EDTA, 0.01% TRITON-X, mean ± SD, n = 2 or 3, SD, read-out: KM^app) was 437 ± 107 µM. The “kcat^app/KM^app” value ([2]; catalytic efficiency from kcat^app and KM^app) was 567 M⁻¹ s⁻¹.
For homolysine [hK], the KAT8 substrate quality [3] is given as “good KAT8 substrate”.
In the case of γ-thialysine, the KAT8 substrate quality [3] is given as “excellent substrate”.
